Reference: patent US10927123B2, “Modulators of the beta-3 adrenergic receptor useful for the treatment or prevention of disorders related thereto” (Arena Pharmaceuticals, Inc., priority 2016, dated 2021)

Target: Beta-3 Adrenergic Receptor (Homo sapiens (Human), UniProt P13945)
Test: HTRF cAMP antagonist assay (IC50 determination)
Type: cell-based
Conditions: CHO-K1 cells stably expressing recombinant receptor; antagonism of isoproterenol at EC90; cAMP readout
Procedure: HTRF cAMP assays were performed according to manufacturer's instructions (Cisbio, cAMP Dynamic 2 Assay Kit; #62AM4PEJ). CHO-K1 cells stably expressing recombinant receptor were harvested and suspended in warm PBS to make a 300,000 cells/mL stock. This cell suspension was dispensed into 384 well assay plates (PerkinElmer ProxiPlate #6008280) at 5 μL per well (1500 cells/well) along with a cAMP standard curve.
Compounds were dissolved and serially diluted (5-fold) in DMSO to generate a 10-point dose response stock. The stock was then diluted 100-fold in assay buffer (PBS containing 1 mM IBMX) before a volume of 2.5 μL was added to the cells (the final, top concentration of compound in the dose-response is typically 10 or 100 μM). After a brief incubation, 2.5 μL of isoproterenol stock, prepared at a concentration 4 times its EC90 at the receptor of interest, was added to the wells. The EC90 for isoproterenol, a beta-adrenergic agonist, was determined in separate experiments using standard methods to measure agonist potencies.
Following a 1-hour incubation at room temperature, 5 μL of cAMP-D2 Reagent diluted in Lysis Buffer was added to each well followed by 5 μL of Cryptate Reagent. Plates were further incubated at room temperature for 1 hour prior to reading. Time resolved fluorescence measurements were collected on a suitable, HTRF-capable plate reader.
Counts from the plate reader were fit to the cAMP standard curve on the assay plate in order to determine cAMP concentrations in each well, and these values were used to construct dose-response curves to obtain IC50 values.

Beta-3 Adrenergic Receptor, sequence (P13945 whole entry, species assumed): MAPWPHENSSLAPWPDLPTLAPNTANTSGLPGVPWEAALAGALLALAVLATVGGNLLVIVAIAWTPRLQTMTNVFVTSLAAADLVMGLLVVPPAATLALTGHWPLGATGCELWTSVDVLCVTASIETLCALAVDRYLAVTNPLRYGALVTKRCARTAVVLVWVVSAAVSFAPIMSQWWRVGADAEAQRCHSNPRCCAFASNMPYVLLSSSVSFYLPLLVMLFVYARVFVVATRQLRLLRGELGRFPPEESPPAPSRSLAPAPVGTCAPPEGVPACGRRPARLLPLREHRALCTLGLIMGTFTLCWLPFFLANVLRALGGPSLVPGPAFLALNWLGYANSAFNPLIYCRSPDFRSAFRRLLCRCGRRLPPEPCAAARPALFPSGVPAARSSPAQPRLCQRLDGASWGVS

SMILES	IC50
CS(=O)(=O)c1cccc(OC[C@@H](O)CNC2COC3(CCN(S(=O)(=O)c4ccc5ccccc5c4)CC3)C2)c1 (stereo partly drawn) [Compound 1, (2S)-1-(3-(methylsulfonyl)phenoxy)-3-(8-(naphthalen-2-ylsulfonyl)-1-oxa-8-azaspiro[4.5]decan-3-ylamino)propan-2-ol]	4.42 nM
CS(=O)(=O)c1cccc(OC[C@H](O)CNC2COC3(CCN(S(=O)(=O)c4ccc5ccccc5c4)CC3)C2)c1 (stereo partly drawn) [Compound 2, (2R)-1-(3-(methylsulfonyl)phenoxy)-3-(8-(naphthalen-2-ylsulfonyl)-1-oxa-8-azaspiro[4.5]decan-3-ylamino)propan-2-ol]	44.8 nM
CS(=O)(=O)c1cccc(OC[C@@H](O)CN[C@H]2COC3(CCN(S(=O)(=O)c4ccc5ccccc5c4)CC3)C2)c1 [Compound 3, (S)-1-(3-(methylsulfonyl)phenoxy)-3-((R)-8-(naphthalen-2-ylsulfonyl)-1-oxa-8-azaspiro[4.5]decan-3-ylamino)propan-2-ol]	5.47 nM
CS(=O)(=O)c1cccc(OC[C@@H](O)CN[C@@H]2COC3(CCN(S(=O)(=O)c4ccc5ccccc5c4)CC3)C2)c1 [Compound 4, (S)-1-(3-(methylsulfonyl)phenoxy)-3-((S)-8-(naphthalen-2-ylsulfonyl)-1-oxa-8-azaspiro[4.5]decan-3-ylamino)propan-2-ol]	4.45 nM
O=S(=O)(CCO)c1cccc(OC[C@@H](O)CNC2COC3(CCN(S(=O)(=O)c4ccc5ccccc5c4)CC3)C2)c1 (stereo partly drawn) [Compound 5, (2S)-1-(3-(2-hydroxyethylsulfonyl)phenoxy)-3-(8-(naphthalen-2-ylsulfonyl)-1-oxa-8-azaspiro[4.5]decan-3-ylamino)propan-2-ol]	33.3 nM
CCCS(=O)(=O)c1cccc(OC[C@@H](O)CNC2COC3(CCN(S(=O)(=O)c4ccc5ccccc5c4)CC3)C2)c1 (stereo partly drawn) [Compound 6, (2S)-1-(8-(naphthalen-2-ylsulfonyl)-1-oxa-8-azaspiro[4.5]decan-3-ylamino)-3-(3-(propylsulfonyl)phenoxy)propan-2-ol]	16.5 nM
O=S(=O)(CC1CC1)c1cccc(OC[C@@H](O)CNC2COC3(CCN(S(=O)(=O)c4ccc5ccccc5c4)CC3)C2)c1 (stereo partly drawn) [Compound 7, (2S)-1-(3-(cyclopropylmethylsulfonyl)phenoxy)-3-(8-(naphthalen-2-ylsulfonyl)-1-oxa-8-azaspiro[4.5]decan-3-ylamino)propan-2-ol]	34.2 nM
CC(C)S(=O)(=O)c1cccc(OC[C@@H](O)CNC2COC3(CCN(S(=O)(=O)c4ccc5ccccc5c4)CC3)C2)c1 (stereo partly drawn) [Compound 8, (2S)-1-(3-(isopropylsulfonyl)phenoxy)-3-(8-(naphthalen-2-ylsulfonyl)-1-oxa-8-azaspiro[4.5]decan-3-ylamino)propan-2-ol]	12.1 nM
O=S(=O)(CCC(F)(F)F)c1cccc(OC[C@@H](O)CNC2COC3(CCN(S(=O)(=O)c4ccc5ccccc5c4)CC3)C2)c1 (stereo partly drawn) [Compound 9, (2S)-1-(8-(naphthalen-2-ylsulfonyl)-1-oxa-8-azaspiro[4.5]decan-3-ylamino)-3-(3-(3,3,3-trifluoropropylsulfonyl)phenoxy)propan-2-ol]	24.2 nM
CC(C)CS(=O)(=O)c1cccc(OC[C@@H](O)CNC2COC3(CCN(S(=O)(=O)c4ccc5ccccc5c4)CC3)C2)c1 (stereo partly drawn) [Compound 10, (2S)-1-(3-(isobutylsulfonyl)phenoxy)-3-(8-(naphthalen-2-ylsulfonyl)-1-oxa-8-azaspiro[4.5]decan-3-ylamino)propan-2-ol]	25.1 nM
CC(C)CCS(=O)(=O)c1cccc(OC[C@@H](O)CNC2COC3(CCN(S(=O)(=O)c4ccc5ccccc5c4)CC3)C2)c1 (stereo partly drawn) [Compound 11, (2S)-1-(3-(isopentylsulfonyl)phenoxy)-3-(8-(naphthalen-2-ylsulfonyl)-1-oxa-8-azaspiro[4.5]decan-3-ylamino)propan-2-ol]	35.5 nM
N#CCS(=O)(=O)c1cccc(OC[C@@H](O)CNC2COC3(CCN(S(=O)(=O)c4ccc5ccccc5c4)CC3)C2)c1 (stereo partly drawn) [Compound 12, 2-(3-((2S)-2-hydroxy-3-(8-(naphthalen-2-ylsulfonyl)-1-oxa-8-azaspiro[4.5]decan-3-ylamino)propoxy)phenylsulfonyl)acetonitrile]	130 nM
O=S(=O)(CC1CCC1)c1cccc(OC[C@@H](O)CNC2COC3(CCN(S(=O)(=O)c4ccc5ccccc5c4)CC3)C2)c1 (stereo partly drawn) [Compound 13, (2S)-1-(3-(cyclobutylmethylsulfonyl)phenoxy)-3-(8-(naphthalen-2-ylsulfonyl)-1-oxa-8-azaspiro[4.5]decan-3-ylamino)propan-2-ol]	97.8 nM
O=S(=O)(CCCC(F)(F)F)c1cccc(OC[C@@H](O)CNC2COC3(CCN(S(=O)(=O)c4ccc5ccccc5c4)CC3)C2)c1 (stereo partly drawn) [Compound 14, (2S)-1-(8-(naphthalen-2-ylsulfonyl)-1-oxa-8-azaspiro[4.5]decan-3-ylamino)-3-(3-(4,4,4-trifluorobutylsulfonyl)phenoxy)propan-2-ol]	56.7 nM
CCS(=O)(=O)c1cccc(OC[C@@H](O)CNC2COC3(CCN(S(=O)(=O)c4ccc5ccccc5c4)CC3)C2)c1 (stereo partly drawn) [Compound 15, (2S)-1-(3-(ethylsulfonyl)phenoxy)-3-(8-(naphthalen-2-ylsulfonyl)-1-oxa-8-azaspiro[4.5]decan-3-ylamino)propan-2-ol]	5.7 nM
O=S(=O)(CC1CCCCC1)c1cccc(OC[C@@H](O)CNC2COC3(CCN(S(=O)(=O)c4ccc5ccccc5c4)CC3)C2)c1 (stereo partly drawn) [Compound 16, (2S)-1-(3-(cyclohexylmethylsulfonyl)phenoxy)-3-(8-(naphthalen-2-ylsulfonyl)-1-oxa-8-azaspiro[4.5]decan-3-ylamino)propan-2-ol]	133 nM
O=S(=O)(CC1CC1(F)F)c1cccc(OC[C@@H](O)CNC2COC3(CCN(S(=O)(=O)c4ccc5ccccc5c4)CC3)C2)c1 (stereo partly drawn) [Compound 17, (2S)-1-(3-((2,2-difluorocyclopropyl)methylsulfonyl)phenoxy)-3-(8-(naphthalen-2-ylsulfonyl)-1-oxa-8-azaspiro[4.5]decan-3-ylamino)propan-2-ol]	38.8 nM
O=S(=O)(c1cccc(OC[C@@H](O)CNC2COC3(CCN(S(=O)(=O)c4ccc5ccccc5c4)CC3)C2)c1)C1CCC1 (stereo partly drawn) [Compound 18, (2S)-1-(3-(cyclobutylsulfonyl)phenoxy)-3-(8-(naphthalen-2-ylsulfonyl)-1-oxa-8-azaspiro[4.5]decan-3-ylamino)propan-2-ol]	48.9 nM
O=S(=O)(c1cccc(OC[C@@H](O)CNC2COC3(CCN(S(=O)(=O)c4ccc5ccccc5c4)CC3)C2)c1)C1CCCC1 (stereo partly drawn) [Compound 19, (2S)-1-(3-(cyclopentylsulfonyl)phenoxy)-3-(8-(naphthalen-2-ylsulfonyl)-1-oxa-8-azaspiro[4.5]decan-3-ylamino)propan-2-ol]	66.7 nM
O=S(=O)(Cc1ccccc1)c1cccc(OC[C@@H](O)CNC2COC3(CCN(S(=O)(=O)c4ccc5ccccc5c4)CC3)C2)c1 (stereo partly drawn) [Compound 20, (2S)-1-(3-(benzylsulfonyl)phenoxy)-3-(8-(naphthalen-2-ylsulfonyl)-1-oxa-8-azaspiro[4.5]decan-3-ylamino)propan-2-ol]	76.2 nM
O=S(=O)(c1cccc(OC[C@@H](O)CNC2COC3(CCN(S(=O)(=O)c4ccc5ccccc5c4)CC3)C2)c1)C1CNC1 (stereo partly drawn) [Compound 21, (2S)-1-(3-(azetidin-3-ylsulfonyl)phenoxy)-3-(8-(naphthalen-2-ylsulfonyl)-1-oxa-8-azaspiro[4.5]decan-3-ylamino)propan-2-ol]	252 nM
